# According to patent publication US20040072230A1, “Human SORBS1 genetic variations contribute to insulin resistance, obesity, type 2 diabetes, and hypertension” (priority 2002, published 2004):
# System: SH3P12/CAP/ponsin mRNA
# Experiment: SH3P12/CAP/ponsin mRNA level in differentiated 3T3-L1 adipocytes after BRL49653
# Type: cell-based, murine
# Details: BRL49653 4.5 μM for 16 hours added to well-differentiated 3T3-L1 adipocytes on day 6; 8.25 fold in the absence of BRL49653
smiles,measurement,value
"CN(CCOc1ccc(CC2SC(=O)NC2=O)cc1)c1ccccn1 (stereo not shown) [BRL49653, rosiglitazone]","level of SH3P12/CAP/ponsin mRNA, fold higher than pre-induction levels",17.6 fold
